# From patent US20120289492A1, “METHODS OF TREATING MITOCHONDRIAL DISORDERS USING METALLOPORPHYRINS” (priority 2009, published 2012)
# “Also recorded” adds a separate entry of the source.
# Columns and labels:
# Type in all cases: in vivo
# [1] = tested on: forebrain of Sod2−/− mice; test: Mitochondrial oxidative stress and bioenergetic indices in brain of Sod2−/− mice
# Procedure: To determine whether AEOL11207 decreases mitochondrial dysfunction and corrects key bioenergetic parameters in Sod2−/− mice, activity was measured of the oxidant sensitive mitochondrial enzyme, aconitase and oxidant insensitive control, fumarase, ATP, 3-nitrotyrosine (3NT), a marker of oxidative damage to proteins, reduced coenzyme A (CoASH) which assesses the mitochondrial redox state and the activity of the sodium potassium ATPase (Na+-K+ ATPase). […] FIGS. 5A-5EC illustrate attenuation of aconitase inactivation (5A), ATP depletion (5B), 3NT formation ([…]), CoASH depletion (5D) and decreased Na+-K+ ATPase activity (5E) in Sod2−/− mice by AEOL11207 (5 mg/kg, s.c. beginning PND5, n=*p<0.05, #p<0.01).
# Methods:3-nitrotyrosine (3-NT) measurement by HPLC 3-NT assay are performed with HPLC equipped electrochemical detector using methods as previously described in the literature. The potentials of the electrochemical detector are set at 180/240/350/500/600/670/810/830 mV. Analyte separation is conducted on a TOSOHAAS (Montgomeryville, Pa.) reverse-phase ODS 80-TM C-18 analytical column (4.6 mm×[…]; 5 µm particle size). A two-component gradient elution system was used with component A of the mobile phase composed of 50 mM sodium acetate pH 3.2, and component B composed of 50mM sodium acetate and 40% methanol. The following gradient elution profile was used: 0-25 min, 100% A; 25-35 min, linear ramp to 50% B; 35-40 min, isocratic 50% B; 40-45 min, linear ramp to 100% A; 45-50 min, isocratic 100% A at a flow rate of 0.6 ml/min. 3-NT was expressed as a ratio of 3-NT to tyrosine.
# Measurement of AMP, ADP and ATP: The levels of AMP, ADP and ATP are quantified by HPLC-UV set at 258 nm following previous described. Analyte are separated by […], […] C-18 reversed-phase column. Mobile phase is composed of 50 mM KH2PO4, 10% methanol, 3 mM TBAS and adjusted to pH 6.0 and flow rate set at 0.8 ml/min.
# Aconitase and fumarase activity assay: Aconitase and fumarase activity are measured in mitochondrial fraction which isolated as previously described. Briefly, brain tissues are homogenized with a Dounce tissue grinder (Wheaton, Millville, N.J.) in ice-cold mitochondrial isolation buffer (70 mM sucrose, 210 mM mannitol, 5 mM Tris HCl, 1 mM EDTA pH 7.4). After homogenization, the suspensions are centrifuged at 800 g for 10 minutes at 4° C., and the supernatants centrifuged at 17,000 g for 10 minutes at 4° C. The pellets are washed by mitochondrial isolation buffer and centrifuged at 17,000 g for 10 minutes at 4° C. again. Aconitase activity is measured spectrophotometrically following previous described by monitoring the formation of cis-aconitate from isocitrate at 240 nm in 50 mM Tris HCl, pH 7.4, containing 0.6 mM MnCl2 at 25° C. Fumarase activity is measured by monitoring the increase in absorbance at 240 nm at 25° C. in a 1 ml reaction mixture containing 30 mM potassium phosphate, pH 7.4, 0.1 mM L-malate.
# Isolation mitochondrial fraction Mitochondria were isolated from the forebrain of mice according to the previously described methods (Liang & Patel, (2006) Free Radic Biol Med 40, 316-22). In brief, the forebrain was homogenized with a Dounce tissue grinder (Wheaton, Millville, N.J.) in mitochondrial isolation buffer (70 mM sucrose, 210 mM mannitol, 5 mM Tris HCl, 1 mM EDTA; pH 7.4). The suspensions centrifuged at 800 g 4° C. for 10 min. The supernatants were centrifuged at 13000 g 4° C. for 10 min., pellets washed with mitochondrial isolation buffer and centrifuged at 13000 g 4° C. for 10 min. to obtain crude mitochondrial fractions. The purity of mitochondrial fractions has been confined by immunoblot analysis of cytochrome c oxidase (COX) (EC1.9.3.1) subunit IV and lactate dehydrogenase (LDH) (EC 1.1.1.27) in mitochondrial and cytosolic fractions. There is no mitochondria contamination in cytosolic fraction and about 5-10% cytosol contamination in mitochondrial fraction (Liang & Patel, (2006) Free Radic Biol Med 40, 316-22). […]
# [2] = tested on: parietal cortex of Sod2−/− mice; test: Histochemical analyses (H&E, Fluoro-Jade B) of Sod2−/− mouse brain
# [3] = tested on: kainate-induced epileptogenesis in rats; test: Kainate-induced chronic epilepsy development (rat model of temporal lobe epilepsy)
# Procedure: The rat model of temporal lobe epilepsy is initiated by a single injection of a chemoconvulasant agent which results in spontaneous epileptic seizure arise several days to weeks thereafter. Groups of rats administered vehicle, kainate (a chemoconvulsant used to initiate injury), kainate+AEOL11207 and AEOL11207 were monitored 6 weeks for behavioral seizures and indices of oxidative stress (GSH/GSSG, CoASH/CoASSG). AEOL11207 was administered at an arbitrary dose of 5 mg/kg, s.c. daily beginning 6 hr after injection of kainate (11 mg/kg). All of the rats in both groups experienced SE after kainate injection, and there was no difference in any of the characteristics of SE between the groups. […] The time to develop chronic epilepsy (latency to chronic epilepsy), spontaneous seizure frequency, severity and duration was determined.
# In another exemplary experiment, pharmacological removal of ROS was examined for its inhibition on kainate-induced epileptogenesis. A pilot was performed in which groups of rats administered vehicle (n=4), kainate (n=6), kainate+AEOL11207(n=6) and AEOL11207 (n=4) were monitored 6 weeks for behavioral seizures (Table 1) and indices of oxidative stress (GSH/GSSG, CoASH/CoASSG) (FIG. 6).
# AEOL11207 was administered at a dose of 5 mg/kg, s.c. daily beginning 6 hr after injection of kainate ([…]). All of the rats in both groups experienced SE after kainate injection, and there was no difference in any of the characteristics of SE between the groups. […] The time to develop chronic epilepsy (latency to chronic epilepsy), spontaneous seizure frequency, severity and duration was determined as previously described. […] None of the rats in the control or AEOL11207 alone groups developed seizures. […] FIG. 6 and Table 1 illustrate the effect of AEOL11207 on kainate-induced chronic epilepsy development (n=6/group) and oxidative stress (n=4-6 per group).
# [4] = Sod2−/− mice, 5 mg/kg s.c. from PND5
# [5] = kainate rats, compared to controls
# [6] = the 2 rats of the kainate+AEOL11207 group that developed epilepsy
smiles,measurement,setting,value
COC(=O)c1c2nc(c(C(F)(F)F)c3ccc([n-]3)c(C(=O)OC)c3nc(c(C(F)(F)F)c4ccc1[n-]4)C=C3)C=C2.[Cl-].[Mn+3] [AEOL11207],decreased CoASH levels,[1]; [4],significantly attenuated
same,increase in 3-nitrotyrosine (3NT) formation,[1]; [4],significantly attenuated
same,attenuation of the depletion of ATP,"[1]; forebrain homogenates of Sod2−/− mice, 15-16 days old",50%
same,decreased Na+-K+ ATPase activity,"[1]; forebrain homogenates, Sod2−/− mice, 5 mg/kg s.c. from PND5, 5 mg/kg",significantly attenuated; also recorded: significantly restored
same,decrease in ATP levels (ATP depletion),"[1]; forebrain, Sod2−/− mice, 5 mg/kg s.c. from PND5",significantly attenuated
same,decrease in aconitase activity (aconitase inactivation),"[1]; mitochondrial fractions, Sod2−/− mice, 5 mg/kg s.c. from PND5",significantly attenuated
same,Histopathological damage including vacuole size and number,"[2]; H&E staining, Sod2−/− mice P15-16",decreased
same,neuronal degeneration (Fluoro-Jade B staining),[2]; compared to vehicle treatment,Significant protection
same,attenuation of Fluoro-Jade B relative fluorescence density,"[2]; parietal cortex of Sod2−/− mice, compared to vehicle treatment",~50%
same,rats that developed seizures,"[3]; AEOL11207 alone group, no kainate",None
same,rats that developed chronic epilepsy during 6 weeks,[3]; in comparison with two-thirds in the kainate group,one-third
same,Duration of seizures (sec.),"[3]; kainate + 5 mg/kg s.c. daily, kainate alone 33.3 ± 1.9",28.3 ± 2.2*p < 0.05 sec.
same,CoASH/CoASSG ratio,[3]; [5],significantly improved
same,GSH/GSSG ratio,[3]; [5],significantly improved
same,decrease of seizure duration,[3]; [6],~15%
same,number of seizures per animal,[3]; [6],no changes
